Here are results for nine compounds from patent publication US20250154169A1, “COMPOUNDS AND METHODS FOR MODULATING SPLICING” (REMIX THERAPEUTICS INC., priority 2021, published 2025).

Structures are written as SMILES. Like-named read-outs stand apart in the source and are kept apart here.

One assay deals with HTT mRNA. The assay is described as follows: Splicing RT-qPCR assay, HTT canonical (CJ) and alternative (AJ) junction mRNA. The format is cell-based, human. Particulars: Homo sapiens, A673 or K562 cells, 24 hours compound treatment; for AC50: read-out: HTT AJ (AC50, increase in alternative junction mRNA); for IC50: read-out: HTT CJ (IC50, decrease in canonical junction mRNA). In a few lines: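 Canonical (CJ) and alternative-exon (AJ) junction mRNAs quantified by one-step RT-qPCR in cell lysates, normalized to housekeeping PPIA for A673 and GAPDH or GUSB for K562. Cells were exposed 24 h at 37 °C to 11-point 3-fold compound series from 10 uM final, with DMSO at or below 0.25%.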
For orientation: Real-time PCR tracks product formation cycle by cycle.

Another assay deals with K562 cells. Description: Cell Titer Glo 2.0 cell viability assay, K562. Format: cell-based. Particulars: Homo sapiens, 72 hours incubation.
In another assay the test system is Target C. Description: Protein abundance, HiBit-assay system (Promega), Target C. Format: cell-based, human. Particulars: Table 6; HiBiT-modified K562 cells, 24 hours. The method, then:
Compounds described herein were used to screen for effects on quantitative protein abundance using a HiBit assay system (Promega). Quantitative protein abundance was determined by measuring the protein levels of HiBit-tagged protein targets expressed in cell culture via luminescence using the Nano-Glo HiBiT Lytic Detection System, which uses a split complementation assay format to reconstitute NanoBiT enzyme to generate a luminescent signal. A protein abundance assay was developed such that endogenous protein targets could be modified with the HiBiT peptide tag and their abundance could be assessed after compound treatment. Briefly, K562 cell lines containing a HiBiT-modification were treated with various compounds described herein (e.g., compounds of Formulas (I) or (II)). After treatment for 24 hours, the protein abundance of a specific target was determined by measuring luminescence.
Cells were maintained in EIDM with 10% FBS. Before the assay, cells were diluted with […] growth media (EIDM+1% FBS media) and were seeded in a 384-well plate at a density of 10000 cells/well (for each cell line listed in Table 5). Each compound was prepared as a 10-point 3-fold serial dilution in DMSO with the top dose at a final concentration of 10 μM in the well. Unmodified K562 cells were added at the previously specified density with DMSO to serve as an assay baseline and positive control (PC) and DMSO only with the respective modified cell lines was added to the negative control (NC) columns. Final DMSO concentration was kept at or below 0.25%. Treated cell plates were placed in an incubator at 37° C. with 5% CO2 for 24 hours. After 24 hours, 25 μL of Complete HiBit Lytic reagent was added to each well at room temperature (e.g. one plate requiring 10 mL Lytic Buffer, 100 μL LgBiT Protein, 200 μL Lytic Substrate), shaken for 5 minutes at 600 RPM, then left to sit for 10 minutes for signal to stabilize before reading on a Spark Cyto plate reader (Tecan) with a 500 ms measurement time.
To determine compound effects on protein abundance of each target in Table 6, the percent response for each respective cell line was calculated at each compound concentration as follows:
For the normalized response at each concentration, a four-parameter logistical regression was fit to the data and the response was interpolated at the 50% value to determine a concentration for protein abundance at […] the untreated control.
(With HiBiT, luminescence reflects the tagged protein that the partner subunit can reach.)

Protocol for K562 cells: Compounds described herein were screened for toxicity in K562 (human chronic myelogenous leukemia) and SH-SY5Y (human neuroblastoma) cells using a Cell Titer Glo 2.0 assay.
• Promega CellTiter-Glo® 2.0 Cell Viability Assay (cat #G9241) • Corning 384-well TC-treated microplates (cat #3570)
Cells were plated at 500 cells/well (K562 cells) in 45 μL of IMDM supplemented with 10% FBS in a 384-well opaque plate. Wells containing only medium were used as a blank control. Test compounds (e.g., compounds of Formula (I) or (II)) were first serially diluted in DMSO then diluted 1:100 with EIDM+10% FBS. The final concentration of DMSO was 0.1% in each well. The cells were incubated for 72 hours at 37° C. and 5% CO2 before assaying with Cell Titer Glo 2.0 reagent.

For `Cc1cn2cc(NC(=O)c3ccc(N4C5CNCC54)c4cn(C)nc34)cc(F)c2n1` (stereo not drawn) [Compound 564, 4-{3,6-diazabicyclo[3.1.0]hexan-6-yl}-N-{8-fluoro-2-methylimidazo[1,2-a]pyridin-6-yl}-2-methylindazole-7-carboxamide], the AC50 – broadly, the concentration giving half of the maximal activity seen – in the assay with HTT mRNA was in the range of 100 to 1000 nM. Moreover, the half-inhibitory concentration (IC50) with HTT mRNA and in the assay with Target C was 100 to 1000 nM throughout. The GI50 (commonly the concentration that inhibits growth by half) with K562 cells is 100 to 1000 nM.

As to `CCn1cc2c(N3CCNCC3)ccc(C(=O)Nc3cc(F)c4nc(C)c(F)n4c3)c2n1` [Compound 565, N-{3,8-difluoro-2-methylimidazo[1,2-a]pyridin-6-yl}-2-ethyl-4-(piperazin-1-yl) indazole-7-carboxamide; trifluoroacetic acid], the IC50 in the assay on HTT mRNA (24 h) and with Target C was > 10000 nM throughout. The AC50 in the assay with HTT mRNA is > 10000 nM. This compound registered a GI50 in the assay with K562 cells of 1000 to 10000 nM.

As for `CCn1cc2c(N3CCNCC3)ccc(C(=O)Nc3cn4cc(C)nc4c(Oc4ccccc4)n3)c2n1` [Compound 566, 2-ethyl-N-{2-methyl-8-phenoxyimidazo[1,2-a]pyrazin-6-yl}-4-(piperazin-1-yl) indazole-7-carboxamide], the IC50 in the assay with HTT mRNA (24 h) and in the assay on Target C was 1000 to 10000 nM in each case. Besides, in the assay on HTT mRNA, the half-maximal activity concentration (AC50) was in the range of 1000 to 10000 nM. The same compound yielded a GI50 with K562 cells of 100 to 1000 nM.

For `Cc1cn2cc(NC(=O)c3ccc(N4CC[C@@H](NC56CC(C5)C6)C4)c4cn(C)nc34)cc(F)c2n1` [Compound 568, 4-[(3R)-3-{bicyclo[1.1.1]pentan-1-ylamino}pyrrolidin-1-yl]-N-{8-fluoro-2-methylimidazo[1,2-a]pyridin-6-yl}-2-methylindazole-7-carboxamide], the IC50 in the assay with HTT mRNA (24 h) and in the assay on Target C was 1000 to 10000 nM in each case. The AC50 with HTT mRNA fell in the range of 1000 to 10000 nM. In the assay on K562 cells, this compound had a GI50 of 100 to 1000 nM.

Take `CCn1cc2c(N3CCC(NC4CC4)C3)cc(F)c(C(=O)Nc3cc(F)c4nc(C)cn4c3)c2n1` (stereo not drawn) [Compound 569, 4-[3-(cyclopropylamino)pyrrolidin-1-yl]-2-ethyl-6-fluoro-N-{8-fluoro-2-methylimidazo[1,2-a]pyridin-6-yl}indazole-7-carboxamide]: the IC50 (in general, the point on the concentration scale where inhibition reaches its midpoint) was > 10000 nM in the assay with HTT mRNA (24 h) and 1000 to 10000 nM in the assay with Target C. In addition, the AC50 in the assay with HTT mRNA lay in the range of 1000 to 10000 nM. Also, in the assay with K562 cells, the GI50 fell in the range of 100 to 1000 nM.

Consider `Cc1cn2cc(NC(=O)c3c(F)cc(N4CC[C@@H](NC5CC5)C4)c4cn(C)nc34)cc(F)c2n1` [Compound 571, 4-[(3R)-3-(cyclopropylamino)pyrrolidin-1-yl]-6-fluoro-N-{8-fluoro-2-methylimidazo[1,2-a]pyridin-6-yl}-2-methylindazole-7-carboxamide], for which the IC50 lay within 100 to 1000 nM in the assay with HTT mRNA (24 h) and 1000 to 10000 nM in the assay with Target C. Besides, in the assay with HTT mRNA, the AC50 lay in the range of 100 to 1000 nM. In addition, in the assay on K562 cells, the concentration for 50% growth inhibition (GI50) was in the range of 100 to 1000 nM.

Take `Cc1cn2cc(NC(=O)c3ccc(N4CC[C@@H](NCc5cnc(Cl)nc5)C4)c4cn(C)nc34)cc(F)c2n1` [Compound 573, 4-[(3R)-3-{[(2-chloropyrimidin-5-yl)methyl]amino}pyrrolidin-1-yl]-N-{8-fluoro-2-methylimidazo[1,2-a]pyridin-6-yl}-2-methylindazole-7-carboxamide]: the IC50 with HTT mRNA (24 h) and with Target C was > 10000 nM each time. Besides, the AC50 with HTT mRNA was > 10000 nM. Also, the GI50 in the assay on K562 cells lay within 1000 to 10000 nM.

On to `Cc1cn2cc(NC(=O)c3ccc(N4CCC(C)(NC(C)C)C4)c4cn(C)nc34)cc(F)c2n1` (stereo not drawn) [Compound 574], for which the IC50 with HTT mRNA (24 h) and with Target C was > 10000 nM in each case. The AC50 in the assay with HTT mRNA was > 10000 nM. Moreover, the GI50 in the assay on K562 cells is 100 to 1000 nM.

As to `CCn1cc2c(N3CCNCC3)ccc(C(=O)Nc3cc(F)c4ncccc4c3)c2n1` [Compound 575], the IC50 with HTT mRNA (24 h) and with Target C was > 10000 nM each time. In the assay on HTT mRNA, the half-maximal activity concentration (AC50) is > 10000 nM. The GI50 in the assay on K562 cells was in the range of 100 to 1000 nM.
